From publication PMC7961380, “A Systematic Study of the In Vitro Pharmacokinetics and Estimated Human In Vivo Clearance of Indole and Indazole-3-Carboxamide Synthetic Cannabinoid Receptor Agonists Detected on the Illicit Drug Market” (Molecules, 2021)
Like-named read-outs stand apart in the source and are kept apart here.

Legend:
[1] = Plasma protein binding by equilibrium dialysis; type: in vitro ADME, human; conditions: 37 °C; for PPB (%) / Fraction Unbound (fu): equilibrium dialysis 5 h; for fraction unbound at 5 h, 10 µg mL^−1: human, pooled human plasma, pH 7.4, equilibrium dialysis 5 h
Protocol: Plasma protein binding was assessed by equilibrium dialysis in a 96-well dialysis block (HTDialysis, Ledyard, CT, USA). Dialysis membranes (12–14 kDa) were soaked in deionised water for at least 60 min. Membranes were soaked overnight at 4 °C in ethanol:water 20:80% v/v and then rinsed with deionised water immediately prior to use. […] Spiked plasma (150 µL) was dialysed against isotonic phosphate buffer (pH 7.4) (150 µL) for 5 h at 37 °C with shaking at 100 rpm. Thermal degradation controls for each test compound were kept at 37 °C and 4 °C. Blank control plasma and buffer were included in the incubation. Following incubation, dialysed plasma samples and thermal degradation controls (50 µL) were added to drug-free buffer (50 µL), and dialysed buffer samples (50 µL) were added to drug-free plasma (50 µL). […] Supernatant (150 µL) was added to 50 µL deionised water and samples were analysed by UPLC-MS/MS as described above. Dialysed buffer from each well was tested for protein contamination using BCA protein assay reagent to determine whether membranes had been compromised.
Bu = Analyte/IS ratio determined in buffer side (2) Fraction unbound, fu=(100−% bound)/100

[2] = Metabolic stability, pooled human liver microsome incubations; conditions: for Predicted In Vivo Hepatic Clearance, CLH: from pHLM CLint, well-stirred model with plasma fu, Q 21 mL min^−1 kg^−1; for T1/2: pHLM 0.5 mg mL^−1, 0.5 µM, NADPH, 37 °C; for T1/2 / Microsomal Intrinsic Clearance, CLint micr: n ≥ 3 ± SD
Protocol: Total incubation volume was 500 µL. Procedure: Test compound working solutions (50 µM in potassium phosphate buffer (pH 7.4)) were prepared (<1% DMSO). pHLM were thawed and diluted in potassium phosphate buffer (pH 7.4). […] Reactions were quenched in 200 µL ACN spiked with donepezil (IS, 50 ng mL^−1). […] Samples were analysed by UPLC-MS/MS in a 96 deep-well 2 mL plate. Each SCRA was incubated at least in triplicate but additional incubations were carried out across a number of analytical batches, giving greater replication and a greater understanding of system variability. Microsomal scaling factors used for human liver microsome incubations in the literature vary. Intrinsic clearance and predicted in vivo clearance rates calculated using alternative scaling factors found in the literature is provided in Section S6 of the supplementary information, to aid comparison of data between publications.
Equations used for in vitro intrinsic clearance calculation and human in vivo clearance […]
The equations used for in vitro intrinsic clearance calculation and human in vivo clearance estimation […]
Microsomal clearance (HLM incubations) in mL min-1 mg microsomal protein-1 [3]
Intrinsic clearance (whole-liver dimensions) (HLM incubations) in mL min-1 kg-1 [3] CL = k x V x [Liver](g) x SF Eqn. 7 […]
mg g microsomal protein-1 [7]
Intrinsic clearance (whole-liver dimensions) (HHep incubations) in mL min-1 kg-1 [4] CL = k x V x hepatocytes/g liver x [Liver](g) Eqn. 8 […]
Where: hepatocytes/g liver = 107x10^6 cells/g liver
Hepatic clearance in mL min-1 kg-1 [3]
[…] Eqn. 9
Where: Q = hepatic blood flow, 21 mL min-1 kg-1 [9]; fu = fraction unbound (plasma); CLint = […]
Estimated human hepatic extraction ratio [5]
Intrinsic clearance data – pooled human liver microsome incubations […]
table S4-28. Intrinsic clearance and predicted in vivo data calculated using alternative microsomal scaling factors found in the literature – 32 [10] and 45 [11] mg microsomal protein per gram liver – are provided in tables S29 and S30, respectively.

[3] = Short-term plasma stability with and without esterase inhibitors; conditions: 3 h, 37 °C; for Parent Compound Remaining (%), Esterase Inhibitors: pH 7.4, BNPP and PMSF 500 µM each; for Parent Compound Remaining (%), No Esterase Inhibitors: pH 7.4, pooled human plasma
[4] = system: pooled human cryopreserved hepatocytes (pHHeps); test: Metabolic stability, pooled human cryopreserved hepatocyte incubations; conditions: for Predicted In Vivo Hepatic Clearance, CLH: from pHHeps CLint, well-stirred model with plasma fu, Q 21 mL min^−1 kg^−1; for T1/2: pHHeps 0.25 million cells mL^−1, 0.5 µM, 37 °C, n ≥ 3 ± SD; for Intrinsic clearance, CLint: alternative hepatocyte cell density 99x10^6 hepatocytes per gram liver
[5] = pHLM, alternative microsomal scaling factor 32 mg microsomal protein per gram liver
[6] = pHLM, alternative microsomal scaling factor 45 mg microsomal protein per gram liver
[7] = pHLM, scaling factor 32 mg microsomal protein per gram liver
[8] = pHLM, scaling factor 45 mg microsomal protein per gram liver
[9] = pHHeps, 99x10^6 hepatocytes per gram liver

Row | SMILES | Predicted In Vivo Hepatic Clearance, CLH [2] [mL/min/kg] | Hepatic extraction ratio, EH ([2]; from pHLM incubations) | T1/2 [2] [min] | % parent compound remaining, Average ([2]; pHLM, 3 min) [%] | % parent compound remaining, Average ([2]; pHLM, 6 min) [%] | % parent compound remaining, Average ([2]; pHLM, 9 min) [%] | % parent compound remaining, Average ([2]; pHLM, 15 min) [%] | % parent compound remaining, Average ([2]; pHLM, 30 min) [%] | Intrinsic clearance, CLint [2, 5] [mL/min/kg] | Intrinsic clearance, CLint [2, 6] [mL/min/kg] | Microsomal Intrinsic Clearance, CLint micr ([2]; pHLM) | Hepatic extraction ratio, EH [2, 7] | Predicted in vivo hepatic clearance, CLH [2, 7] [mL/min/kg] | Hepatic extraction ratio, EH [2, 8] | Predicted in vivo hepatic clearance, CLH [2, 8] [mL/min/kg] | Parent Compound Remaining (%), Esterase Inhibitors [3] [%] | Parent Compound Remaining (%), No Esterase Inhibitors [3] [%] | Predicted In Vivo Hepatic Clearance, CLH [4] [mL/min/kg] | Hepatic extraction ratio, EH ([4]; from pHHeps incubations) | T1/2 [4] [min] | also measured
1 | COC(=O)[C@H](NC(=O)c1cn(CCCCCF)c2ccccc12)C(C)(C)C [(R)-5F-MDMB-PICA (3), methyl 2-[1-(5-fluoropentyl)-1H-indole-3-carboxamido]-3,3-dimethylbutanoate] | 7.22 ± 0.05 | 0.34 ± 0.002 | 11 ± 0.11 | 72.6 | 62.5 | 52.6 | 36.8 | 16.4 | 108 ± 1.13 | 152 ± 1.59 | 0.132 ± 0.001 mL min^−1 mg Microsomal Protein^−1 | 0.24 ± 0.002 | 5.09 ± 0.04 | 0.31 ± 0.002 | 6.51 ± 0.05 | 97.7 ± 5.6 | 103.2 ± 14.5 | 6.27 ± 0.74 | 0.30 ± 0.035 | 54 ± 9.4 | PPB (%) ([1]; 10 µg mL^−1): 93.8 ± 0.15%; Fraction Unbound (fu) ([1]; plasma): 0.062 ± 0.0015; Hepatic extraction ratio, EH [4, 9]: 0.28 ± 0.034; Predicted in vivo hepatic clearance, CLH [4, 9]: 5.94 ± 0.72 mL/min/kg; % parent compound remaining, Average ([4]; pHHeps, 3 min): 87.4%; % parent compound remaining, Average ([4]; pHHeps, 6 min): 85.8%; % parent compound remaining, Average ([4]; pHHeps, 9 min): 88.6%; % parent compound remaining, Average ([4]; pHHeps, 15 min): 78.8%; % parent compound remaining, Average ([4]; pHHeps, 30 min): 64.9%; % parent compound remaining, Average ([4]; pHHeps, 45 min): 51.8%; % parent compound remaining, Average ([4]; pHHeps, 60 min): 43.7%; Intrinsic clearance, CLint ([4]; pHHeps): 134 ± 22.3 mL/min/kg
2 | COC(=O)[C@H](NC(=O)c1nn(CCCCCF)c2ccccc12)C(C)(C)C [(R)-5F-MDMB-PINACA (2), methyl 2-[1-(5-fluoropentyl)-1H-indazole-3-carboxamido]-3,3-dimethylbutanoate] | 6.52 ± 0.61 | 0.31 ± 0.029 | 8.0 ± 1.1 | 71.1 | 58.2 | 44.4 | 28.9 | 8.7 | 145 | 204 | 0.176 ± 0.024 mL min^−1 mg Microsomal Protein^−1 | 0.22 ± 0.023 | 4.53 ± 0.48 | 0.28 ± 0.027 | 5.85 ± 0.57 | 100.1 ± 7.0 | 95.9 ± 6.7 | 8.16 ± 0.38 | 0.39 ± 0.018 | 23 ± 1.8 | fraction unbound at 5 h, 10 µg mL^−1 ([1]; 10 µg mL^−1, read-out: PPB (%) (converted)): 0.04; fraction unbound at 5 h, 10 µg mL^−1 ([1]; plasma, read-out: Fraction Unbound (fu)): 0.04 ± 0.0058; half-life ([4]; pHHep lot HUE50-N): 22.9 ± 1.8 min; half-life ([4]; pHHep lot HUE50-P): 6.5 ± 0.13 min; Hepatic extraction ratio, EH [4, 9]: 0.37 ± 0.018; Predicted in vivo hepatic clearance, CLH [4, 9]: 7.78 ± 0.38 mL/min/kg; % parent compound remaining, Average ([4]; pHHeps, 3 min): 84.1%; % parent compound remaining, Average ([4]; pHHeps, 6 min): 67.3%; % parent compound remaining, Average ([4]; pHHeps, 9 min): 55.7%; % parent compound remaining, Average ([4]; pHHeps, 15 min): 45.8%; % parent compound remaining, Average ([4]; pHHeps, 30 min): 27.3%; % parent compound remaining, Average ([4]; pHHeps, 45 min): 17.9%; % parent compound remaining, Average ([4]; pHHeps, 60 min): 13.6%; Intrinsic clearance, CLint ([4]; pHHeps): 309 ± 23.6 mL/min/kg
3 | C=CCCCn1cc(C(=O)N[C@@H](C(=O)OC)C(C)(C)C)c2ccccc21 [(R)-MDMB-4en-PICA (12), methyl 3,3-dimethyl-2-[1-(pent-4-en-1-yl)-1H-indole-3-carboxamido]butanoate] | 9.81 ± 0.75 | 0.47 ± 0.036 | 5.4 ± 0.74 | 67.7 | 47.7 | 31.7 | 13.8 | 1.7 | 213 | 300 | 0.260 ± 0.040 mL min^−1 mg Microsomal Protein^−1 | 0.35 ± 0.033 | 7.32 ± 0.70 | 0.43 ± 0.035 | 9.01 ± 0.74 | 87.7 ± 11.0 | 90.3 ± 5.4 | 6.42 ± 0.62 | 0.31 ± 0.029 | 44 ± 6.3 | PPB (%) ([1]; 10 µg mL^−1): 94.7 ± 1.11%; Fraction Unbound (fu) ([1]; plasma): 0.053 ± 0.0111; Hepatic extraction ratio, EH [4, 9]: 0.29 ± 0.028; Predicted in vivo hepatic clearance, CLH [4, 9]: 6.08 ± 0.60 mL/min/kg; % parent compound remaining, Average ([4]; pHHeps, 3 min): 90.1%; % parent compound remaining, Average ([4]; pHHeps, 6 min): 81.5%; % parent compound remaining, Average ([4]; pHHeps, 9 min): 83.7%; % parent compound remaining, Average ([4]; pHHeps, 15 min): 79.3%; % parent compound remaining, Average ([4]; pHHeps, 30 min): 61.6%; % parent compound remaining, Average ([4]; pHHeps, 45 min): 46.4%; % parent compound remaining, Average ([4]; pHHeps, 60 min): 40.6%; Intrinsic clearance, CLint ([4]; pHHeps): 162 ± 22.16 mL/min/kg
